# Measurements: ChEMBL document CHEMBL2057108 (Bioorg Med Chem Lett, 2012)
# How the values were obtained:
# hERG (KCNH2) = hERG (KCNH2) (Homo sapiens, UniProt Q12809); test: Inhibition of human ERG expressed in CHO cells at 3 uM; type: cell-based; settings: CHO cells expressing human ERG
# [1] = Permeability across human Caco2 cells; type: ADME, cell-based; settings: Caco-2, read-out: Kp
# [2] = target: T1, 5-hydroxytryptamine receptor 4 (Homo sapiens, UniProt Q13639); test: Agonist activity at human 5HT4C receptor expressed at 100 fold physiological-level in HEK293 cells assessed as cAMP accumulation; type: functional, cell-based
# T1 sequence (Q13639 whole entry): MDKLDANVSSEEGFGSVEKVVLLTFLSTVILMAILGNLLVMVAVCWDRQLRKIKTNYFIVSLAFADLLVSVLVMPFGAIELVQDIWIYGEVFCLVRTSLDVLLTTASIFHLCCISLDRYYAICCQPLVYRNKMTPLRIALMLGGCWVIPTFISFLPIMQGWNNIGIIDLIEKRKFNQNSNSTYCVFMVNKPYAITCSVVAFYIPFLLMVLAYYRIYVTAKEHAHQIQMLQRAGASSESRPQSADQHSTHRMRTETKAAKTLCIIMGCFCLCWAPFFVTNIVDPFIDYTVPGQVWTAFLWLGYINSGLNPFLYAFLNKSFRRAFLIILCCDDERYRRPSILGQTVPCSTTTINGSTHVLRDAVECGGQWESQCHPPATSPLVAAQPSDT
# [3] = (§1) Half life in rat liver microsomes; type: ADME, Microsome; settings: liver microsomes
# [4] = target: T1, 5-hydroxytryptamine receptor 4; test: Intrinsic activity at human 5HT4C receptor expressed at 100 fold physiological-level in HEK293 cells assessed as cAMP accumulation relative to 5HT; type: functional, cell-based
# [5] = target: T1, 5-hydroxytryptamine receptor 4; test: biochemical
# Description: Displacement of [3H]GR113808 from human recombinant 5HT4C receptor expressed in HEK293 cells
# Homo sapiens = species on record: Homo sapiens; test: Selectivity ratio of Ki for human 5HT3A receptor to Ki for human 5HT4C receptor
# Liver microsomes = test: as §1; type: ADME, Microsome; settings: microsomes
# hERG (KCNH2), sequence (Q12809 whole entry): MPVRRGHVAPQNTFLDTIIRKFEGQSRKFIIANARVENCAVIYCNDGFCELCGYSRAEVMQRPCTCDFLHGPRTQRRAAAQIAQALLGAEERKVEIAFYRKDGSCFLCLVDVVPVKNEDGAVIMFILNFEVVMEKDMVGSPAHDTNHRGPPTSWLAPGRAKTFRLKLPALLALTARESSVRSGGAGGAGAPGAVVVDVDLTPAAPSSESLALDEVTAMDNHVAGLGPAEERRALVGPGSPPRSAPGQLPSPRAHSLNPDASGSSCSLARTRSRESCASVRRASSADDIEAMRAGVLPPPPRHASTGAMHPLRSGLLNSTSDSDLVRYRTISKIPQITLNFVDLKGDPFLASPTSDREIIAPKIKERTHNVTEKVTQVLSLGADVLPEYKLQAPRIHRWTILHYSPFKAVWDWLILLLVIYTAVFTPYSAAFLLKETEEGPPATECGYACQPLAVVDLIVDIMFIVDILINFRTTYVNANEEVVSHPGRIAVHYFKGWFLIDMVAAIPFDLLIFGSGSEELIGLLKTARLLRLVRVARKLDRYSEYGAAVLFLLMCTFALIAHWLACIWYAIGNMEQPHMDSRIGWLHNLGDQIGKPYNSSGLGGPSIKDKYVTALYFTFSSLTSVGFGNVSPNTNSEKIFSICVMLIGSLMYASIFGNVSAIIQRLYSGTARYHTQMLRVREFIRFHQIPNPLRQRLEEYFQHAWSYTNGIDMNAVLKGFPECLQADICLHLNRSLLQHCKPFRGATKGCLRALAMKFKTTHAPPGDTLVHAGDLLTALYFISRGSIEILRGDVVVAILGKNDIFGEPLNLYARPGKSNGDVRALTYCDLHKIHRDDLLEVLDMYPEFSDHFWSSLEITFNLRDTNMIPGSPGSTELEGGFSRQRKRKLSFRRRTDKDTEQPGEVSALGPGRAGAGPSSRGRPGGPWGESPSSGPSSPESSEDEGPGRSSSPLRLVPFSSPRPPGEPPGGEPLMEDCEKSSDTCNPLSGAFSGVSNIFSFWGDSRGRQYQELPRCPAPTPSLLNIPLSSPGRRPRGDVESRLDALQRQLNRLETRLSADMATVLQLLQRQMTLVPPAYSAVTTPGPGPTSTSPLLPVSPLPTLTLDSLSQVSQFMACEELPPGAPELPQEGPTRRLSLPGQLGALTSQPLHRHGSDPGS
Structure (SMILES),inhibition at 3 µM (hERG (KCNH2)) [%],Papp [1] [×10⁻⁶ cm/s],EC50 [2] [nM],half-life [3] [h],Intrinsic activity [4] [%],Ki [5] [nM],Ratio Ki (Homo sapiens),t1/2 (Liver microsomes) [h]
CC(C)n1nc(C(=O)N[C@H]2C[C@H]3CC[C@@H](C2)N3C[C@H](O)CN2CCN(S(C)(=O)=O)CC2)c2ccccc21,7,18,0.794,> 1.5,94,7.94,240,
COC[C@@H]1CCCN1CC(O)CN1[C@@H]2CC[C@H]1C[C@@H](NC(=O)c1nn(C(C)C)c3ccccc13)C2 (stereo not given in full),33,48,2.51,1.25,108,3.98,3000,
CC(C)n1nc(C(=O)N[C@H]2C[C@H]3CC[C@@H](C2)N3)c2ccccc21,,,,,,,< 1,
CC(C)n1nc(C(=O)N[C@H]2C[C@H]3CC[C@@H](C2)N3CC(O)CN2CCCCC2)c2ccccc21 (stereo not given in full),62,30,2,> 1.5,85,2,13000,
COc1cc(N)c(Cl)cc1C(=O)N[C@H]1CCN(CCCOc2ccc(F)cc2)C[C@H]1OC (relative stereo) [REL-CISAPRIDE],,,,,117,,,0.783
CC(C)n1nc(C(=O)N[C@H]2C[C@H]3CC[C@@H](C2)N3CCCCCCN2CCN(S(C)(=O)=O)CC2)c2ccccc21,,,12.6,,75,2.51,3.6,
CC(C)N(C)CCCCCCN1[C@@H]2CC[C@H]1C[C@@H](NC(=O)c1nn(C(C)C)c3ccccc13)C2,,,5.01,,92,1,23,
CC(C)n1nc(C(=O)N[C@H]2C[C@H]3CC[C@@H](C2)N3CC(O)CN2CCC(CNS(C)(=O)=O)CC2)c2ccccc21 (stereo not given in full),,1,0.631,> 1.5,93,2.51,19000,
CC(C)n1nc(C(=O)N[C@H]2C[C@H]3CC[C@@H](C2)N3CC(O)CN2CCN(S(C)(=O)=O)CC2)c2ccccc21 (stereo not given in full),4,19,0.794,> 1.5,95,3.98,7300,
